PubChem BioAssay (NCI)
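1) Cells in 96-well plates. 2) Compound, 48 h, 5 concentrations. 3) Linear interpolation between surrounding doses. 4) Unreached endpoint = highest concentration. TGI denotes the concentration required for complete inhibition of growth.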

Experiments:
Assay in all cases: growth of human tumour cells (NCI), 48 h
[1] = tested on: 786-0 renal
[2] = tested on: A549 NSCLC
[3] = tested on: ACHN renal
[4] = tested on: BT-549 breast
[5] = tested on: CAKI-1 renal
[6] = tested on: CCRF-CEM leukemia
[7] = tested on: COLO 205 colon
[8] = tested on: DU-145 prostate
[9] = tested on: EKVX NSCLC
[10] = tested on: HCC-2998 colon
[11] = tested on: HCT-116 colon
[12] = tested on: HCT-15 colon
[13] = tested on: HL-60(TB) leukemia
[14] = tested on: HOP-62 NSCLC
[15] = tested on: HOP-92 NSCLC
[16] = tested on: HS 578T breast
[17] = tested on: HT29 colon
[18] = tested on: IGROV1 ovarian
[19] = tested on: K-562 leukemia
[20] = tested on: KM12 colon
[21] = tested on: LOX IMVI melanoma
[22] = tested on: M14 melanoma
[23] = tested on: MALME-3M melanoma
[24] = tested on: MCF7 breast
[25] = tested on: MDA-MB-231 breast
[26] = tested on: MDA-MB-435
[27] = tested on: MDA-N
[28] = tested on: MOLT-4 leukemia
[29] = tested on: NCI-H226 lung
[30] = tested on: NCI-H23 lung
[31] = tested on: NCI-H460 lung
[32] = tested on: NCI-H522 lung
[33] = tested on: NCI/ADR-RES ovarian
[34] = tested on: OVCAR-3 ovarian
[35] = tested on: OVCAR-4 ovarian
[36] = tested on: OVCAR-5 ovarian
[37] = tested on: OVCAR-8 ovarian
[38] = tested on: PC-3 prostate
[39] = tested on: RPMI-8226 leukemia
[40] = tested on: RXF 393 renal
[41] = tested on: SF-268 CNS
[42] = tested on: SF-295 CNS
[43] = tested on: SF-539 CNS
[44] = tested on: SK-MEL-2 melanoma
[45] = tested on: SK-MEL-28 melanoma
[46] = tested on: SK-MEL-5 melanoma
[47] = tested on: SK-OV-3 ovarian
[48] = tested on: SN12C renal
[49] = tested on: SNB-19 CNS
[50] = tested on: SNB-75 CNS
[51] = tested on: SR leukemia
[52] = tested on: SW-620 colon
[53] = tested on: T-47D breast
[54] = tested on: TK-10 renal
[55] = tested on: U251 CNS
[56] = tested on: UACC-257 melanoma
[57] = tested on: UACC-62 melanoma
[58] = tested on: UO-31 renal

Work on `CCOC(=O)C1(C(=O)OCC)[C@@H](c2ccccc2)C2=NO[C@@H]3CCC[C@H]1[C@H]23` yielded a TGI [1] of over 100 µM, a TGI [2] of over 100 µM and a TGI [3] of over 100 µM. The TGI [4] was over 100 µM, the TGI [5] was over 100 µM and the TGI [6] was 78.7 µM. The TGI [7] was over 100 µM, the TGI [8] was over 100 µM and the TGI [9] was over 100 µM. The TGI [10] was 50.2 µM, the TGI [11] was over 100 µM and the TGI [12] was over 100 µM. The TGI [13] was over 100 µM, the TGI [14] was over 100 µM and the TGI [15] was over 100 µM. For the same molecule, the TGI [16] was over 100 µM, the TGI [17] was over 100 µM and the TGI [18] was over 100 µM. It also gave a TGI [19] of over 100 µM, a TGI [20] of over 100 µM and a TGI [21] of over 100 µM. For the same molecule, the TGI [22] was over 100 µM, the TGI [23] was over 100 µM and the TGI [24] was over 100 µM. For the same molecule, the TGI [25] was over 100 µM, the TGI [26] was 53.6 µM and the TGI [27] was 64.6 µM. The TGI [28] was over 100 µM, the TGI [29] was over 100 µM and the TGI [30] was over 100 µM. The TGI [31] was over 100 µM, the TGI [32] was over 100 µM and the TGI [33] was over 100 µM. The TGI [34] was over 100 µM, the TGI [35] was over 100 µM and the TGI [36] was over 100 µM. For the same molecule, the TGI [37] was over 100 µM, the TGI [38] was over 100 µM and the TGI [39] was over 100 µM. For the same molecule, the TGI [40] was over 100 µM, the TGI [41] was over 100 µM and the TGI [42] was over 100 µM. It also gave a TGI [43] of over 100 µM, a TGI [44] of over 100 µM and a TGI [45] of over 100 µM. For the same molecule, the TGI [46] was over 100 µM, the TGI [47] was over 100 µM and the TGI [48] was over 100 µM. For the same molecule, the TGI [49] was over 100 µM, the TGI [50] was over 100 µM and the TGI [51] was over 100 µM. The TGI [52] was over 100 µM, the TGI [53] was over 100 µM and the TGI [54] was over 100 µM. It also gave a TGI [55] of over 100 µM, a TGI [56] of 79.8 µM and a TGI [57] of over 100 µM. It also gave a TGI [58] of over 100 µM.

`CCCCc1ccc(-n2sc3ncc(C)cc3c2=O)cc1` gave a TGI [1] of over 100 µM, a TGI [2] of 78.9 µM and a TGI [3] of over 100 µM. It also gave a TGI [4] of 40.7 µM, a TGI [6] of 50.5 µM and a TGI [7] of 46.3 µM. The TGI [8] was over 100 µM, the TGI [9] was 46.9 µM and the TGI [10] was over 100 µM. The TGI [11] was over 100 µM, the TGI [12] was 59.1 µM and the TGI [13] was 32.7 µM. It also gave a TGI [14] of over 100 µM, a TGI [15] of 87.5 µM and a TGI [16] of over 100 µM. The TGI [18] was over 100 µM, the TGI [19] was over 100 µM and the TGI [20] was over 100 µM. For the same molecule, the TGI [21] was 72.3 µM, the TGI [22] was 29.4 µM and the TGI [23] was 90.1 µM. It also gave a TGI [24] of 34.3 µM, a TGI [25] of 44.5 µM and a TGI [26] of over 100 µM. It also gave a TGI [27] of over 100 µM, a TGI [28] of over 100 µM and a TGI [29] of over 100 µM. For the same molecule, the TGI [30] was over 100 µM, the TGI [31] was over 100 µM and the TGI [32] was 40.6 µM. For the same molecule, the TGI [33] was 72 µM, the TGI [34] was 47.8 µM and the TGI [35] was over 100 µM. For the same molecule, the TGI [36] was 57.6 µM, the TGI [37] was 51.1 µM and the TGI [38] was 28.2 µM. It also gave a TGI [39] of 99 µM, a TGI [40] of 73.8 µM and a TGI [42] of over 100 µM. It also gave a TGI [44] of over 100 µM, a TGI [45] of over 100 µM and a TGI [46] of 46.2 µM. For the same molecule, the TGI [47] was over 100 µM, the TGI [48] was 47.2 µM and the TGI [49] was over 100 µM. The TGI [50] was over 100 µM, the TGI [51] was over 100 µM and the TGI [52] was 78 µM. It also gave a TGI [53] of 63.1 µM, a TGI [54] of over 100 µM and a TGI [55] of over 100 µM. It also gave a TGI [57] of over 100 µM and a TGI [58] of 20.2 µM.
